Test results as given in PMC6009956, “Design, synthesis and biological activity of N^4-phenylsubstituted-7H-pyrrolo[2,3-d]pyrimidin-4-amines as dual inhibitors of aurora kinase A and epidermal growth factor receptor kinase” (Journal of Enzyme Inhibition and Medicinal Chemistry, 2017).
Read-outs that look alike come from different tables or passages of the source.

Tests used:
aurora A kinase (AURKA) = target: T1, aurora A kinase (AURKA) (Homo sapiens, UniProt O14965); experiment: ADP-Glo kinase assay, Aurora A; assay type: biochemical
T1 construct: purchased BPS Bioscience (assay run externally by the vendor)
T1 sequence (O14965 1-403): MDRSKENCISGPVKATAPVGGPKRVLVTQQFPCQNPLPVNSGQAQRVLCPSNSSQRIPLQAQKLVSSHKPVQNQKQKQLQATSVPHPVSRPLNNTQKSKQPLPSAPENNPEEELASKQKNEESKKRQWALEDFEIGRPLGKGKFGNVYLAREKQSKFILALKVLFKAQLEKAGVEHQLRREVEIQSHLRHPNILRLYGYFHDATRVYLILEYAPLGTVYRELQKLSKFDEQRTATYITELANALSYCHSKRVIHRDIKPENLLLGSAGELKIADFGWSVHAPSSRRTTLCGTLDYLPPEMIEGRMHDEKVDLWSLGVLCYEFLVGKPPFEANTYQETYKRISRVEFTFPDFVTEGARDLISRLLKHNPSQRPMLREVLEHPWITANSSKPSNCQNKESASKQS

EGFR = EGFR (Homo sapiens, UniProt P00533); experiment: ADP-Glo kinase assay, EGFR; assay type: biochemical; design: purchased BPS Bioscience (assay run externally by the vendor)
Sequence of EGFR (P00533 25-1210): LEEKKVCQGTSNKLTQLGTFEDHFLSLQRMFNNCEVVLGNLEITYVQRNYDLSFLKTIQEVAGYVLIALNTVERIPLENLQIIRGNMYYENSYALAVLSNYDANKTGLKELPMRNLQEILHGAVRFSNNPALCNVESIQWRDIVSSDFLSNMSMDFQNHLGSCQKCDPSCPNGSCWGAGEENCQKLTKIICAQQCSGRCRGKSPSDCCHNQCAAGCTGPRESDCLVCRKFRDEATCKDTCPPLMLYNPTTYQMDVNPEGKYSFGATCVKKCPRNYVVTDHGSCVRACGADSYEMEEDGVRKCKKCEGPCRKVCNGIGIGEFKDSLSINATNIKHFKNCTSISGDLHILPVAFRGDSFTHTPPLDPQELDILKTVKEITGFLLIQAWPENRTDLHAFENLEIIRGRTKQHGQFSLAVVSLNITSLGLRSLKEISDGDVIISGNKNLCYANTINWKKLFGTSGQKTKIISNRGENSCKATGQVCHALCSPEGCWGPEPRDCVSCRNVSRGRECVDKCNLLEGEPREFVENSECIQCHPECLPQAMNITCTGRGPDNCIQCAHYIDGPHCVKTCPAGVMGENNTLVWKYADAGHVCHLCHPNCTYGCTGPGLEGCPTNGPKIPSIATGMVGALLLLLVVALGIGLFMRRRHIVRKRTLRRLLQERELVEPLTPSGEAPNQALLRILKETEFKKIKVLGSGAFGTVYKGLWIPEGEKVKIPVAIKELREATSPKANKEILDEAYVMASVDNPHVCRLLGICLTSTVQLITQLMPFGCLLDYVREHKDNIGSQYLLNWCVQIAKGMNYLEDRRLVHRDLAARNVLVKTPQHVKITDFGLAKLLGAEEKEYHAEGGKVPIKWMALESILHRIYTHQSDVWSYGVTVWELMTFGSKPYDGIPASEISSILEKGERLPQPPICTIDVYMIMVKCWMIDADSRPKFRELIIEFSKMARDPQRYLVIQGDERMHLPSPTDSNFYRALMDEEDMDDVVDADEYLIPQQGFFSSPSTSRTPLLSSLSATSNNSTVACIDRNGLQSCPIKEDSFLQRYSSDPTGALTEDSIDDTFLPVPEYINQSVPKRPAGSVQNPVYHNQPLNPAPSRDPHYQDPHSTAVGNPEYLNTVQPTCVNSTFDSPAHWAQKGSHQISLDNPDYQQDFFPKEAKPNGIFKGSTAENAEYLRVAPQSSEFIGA

## COc1ccc(Nc2ncnc3[nH]ccc23)cc1 [Compound 6, N^4-(4-methoxyphenyl)-7H-pyrrolo[2,3-d]pyrimidine-4-amine]
Aurora A kinase (AURKA); 10 µM ATP, triplicate, read-out: AURKA IC50 ± SD
  IC50: 6.68 ± 0.54 µM
Aurora A kinase (AURKA); 10 µM ATP/0.2 mg/ml Kemptide, read-out: Aurora A IC50 (dose-response curve, supplement)
  IC50: 6.7 µM
Aurora A kinase (AURKA); Log[nM] 0
  Aurora A % Activity Set1: 104%
  Aurora A % Activity Set2: 94%
  Aurora A % Activity Set3: 88%
Aurora A kinase (AURKA); Log[nM] 1.0
  Aurora A % Activity Set1: 95%
  Aurora A % Activity Set2: 89%
  Aurora A % Activity Set3: 91%
Aurora A kinase (AURKA); Log[nM] 1.5
  Aurora A % Activity Set1: 111%
  Aurora A % Activity Set2: 100%
  Aurora A % Activity Set3: 110%
Aurora A kinase (AURKA); Log[nM] 2.0
  Aurora A % Activity Set1: 100%
  Aurora A % Activity Set2: 95%
  Aurora A % Activity Set3: 96%
Aurora A kinase (AURKA); Log[nM] 2.5
  Aurora A % Activity Set1: 108%
  Aurora A % Activity Set2: 100%
  Aurora A % Activity Set3: 106%
Aurora A kinase (AURKA); Log[nM] 3.0
  Aurora A % Activity Set1: 88%
  Aurora A % Activity Set2: 91%
  Aurora A % Activity Set3: 84%
Aurora A kinase (AURKA); Log[nM] 3.5
  Aurora A % Activity Set1: 86%
  Aurora A % Activity Set2: 80%
  Aurora A % Activity Set3: 76%
Aurora A kinase (AURKA); Log[nM] 4.0
  Aurora A % Activity Set1: 30%
  Aurora A % Activity Set2: 33%
  Aurora A % Activity Set3: 27%
Aurora A kinase (AURKA); Log[nM] 4.5
  Aurora A % Activity Set1: 14%
  Aurora A % Activity Set2: 14%
  Aurora A % Activity Set3: 13%
Aurora A kinase (AURKA); Log[nM] 5.0
  Aurora A % Activity Set1: 8%
  Aurora A % Activity Set2: 6%
  Aurora A % Activity Set3: 4%
EGFR
  EGFR inhibition (in words): micromolar EGFR inhibition
  Fold better for EGFR over AURKA: 2 fold
  Fold less potent than staurosporine against EGFR: seven-fold
EGFR; 10 µM ATP, triplicate, read-out: EGFR IC50 ± SD
  IC50: 2.94 ± 0.0944 µM
EGFR; 10 µM ATP/0.2 mg/ml Poly-Glu-Tyr, read-out: EGFR IC50 (dose-response curve, supplement)
  IC50: 3 µM
EGFR; Log[nM] 0
  EGFR % Activity Set1: 98%
  EGFR % Activity Set2: 102%
  EGFR % Activity Set3: 105%
EGFR; Log[nM] 1.0
  EGFR % Activity Set1: 102%
  EGFR % Activity Set2: 110%
  EGFR % Activity Set3: 108%
EGFR; Log[nM] 1.5
  EGFR % Activity Set1: 105%
  EGFR % Activity Set2: 106%
  EGFR % Activity Set3: 108%
EGFR; Log[nM] 2.0
  EGFR % Activity Set1: 99%
  EGFR % Activity Set2: 102%
  EGFR % Activity Set3: 104%
EGFR; Log[nM] 2.5
  EGFR % Activity Set1: 96%
  EGFR % Activity Set2: 93%
  EGFR % Activity Set3: 97%
EGFR; Log[nM] 3.0
  EGFR % Activity Set1: 72%
  EGFR % Activity Set2: 79%
  EGFR % Activity Set3: 78%
EGFR; Log[nM] 3.5
  EGFR % Activity Set1: 43%
  EGFR % Activity Set2: 48%
  EGFR % Activity Set3: 43%
EGFR; Log[nM] 4.0
  EGFR % Activity Set1: 23%
  EGFR % Activity Set2: 24%
  EGFR % Activity Set3: 22%
EGFR; Log[nM] 4.5
  EGFR % Activity Set1: 8%
  EGFR % Activity Set2: 9%
  EGFR % Activity Set3: 8%
EGFR; Log[nM] 5.0
  EGFR % Activity Set1: 4%
  EGFR % Activity Set2: 4%
  EGFR % Activity Set3: 4%

## CN[C@@H]1C[C@H]2O[C@@](C)([C@@H]1OC)n1c3ccccc3c3c4c(c5c6ccccc6n2c5c31)C(=O)NC4 [Staurosporine, staurosporine, reference compound]
Aurora A kinase (AURKA); Log[nM] 0
  Aurora A % Activity Set1: 109%
  Aurora A % Activity Set2: 103%
  Aurora A % Activity Set3: 109%
Aurora A kinase (AURKA); Log[nM] 1.0
  Aurora A % Activity Set1: 102%
  Aurora A % Activity Set2: 101%
  Aurora A % Activity Set3: 102%
Aurora A kinase (AURKA); Log[nM] 1.5
  Aurora A % Activity Set1: 73%
  Aurora A % Activity Set2: 69%
  Aurora A % Activity Set3: 85%
Aurora A kinase (AURKA); Log[nM] 2.0
  Aurora A % Activity Set2: 9%
Aurora A kinase (AURKA); Log[nM] -0.5
  Aurora A % Activity Set1: 98%
  Aurora A % Activity Set2: 100%
  Aurora A % Activity Set3: 102%
Aurora A kinase (AURKA); Log[nM] -1.0
  Aurora A % Activity Set1: 100%
  Aurora A % Activity Set2: 93%
  Aurora A % Activity Set3: 102%
